Measurements taken from patent US10640463B2, “Chlorhexidine crystal forms and uses thereof in medicine” (Queen Mary University of London, priority 2016, dated 2020).

Experiments:
[1] = Thermo-gravimetric analysis (TGA); type: physicochemical; settings: TGA at 10° C./min in nitrogen, 50-800° C.
Protocol: The chlorhexidine chloride spheres (0.33M CaCl2 group) were analysed by Thermo-gravimetric analysis (TGA Q50, USA). Chlorhexidine diacetate crystals and CaCl2 powder (Sigma-Aldrich, C8106, Lot: SLBF7416V) were tested as comparisons. TGA was carried out at 10° C./min in a nitrogen atmosphere, over a temperature range of 50-800° C. The chlorhexidine proportion was further confirmed by the TGA result. […] The decomposition temperature of the chlorhexidine chloride spheres (210° C.) was higher than the chlorhexidine diacetate crystals (120° C.).

[2] = Chlorhexidine release from HEMA-UDMA resin discs, with or without ultrasound; type: physicochemical; settings: no ultrasound, within 65 hours
Protocol: HEMA-UDMA resin was prepared by mixing 64% urethane dimethacrylate (UDMA) (Esschem UK, Lot: 591-22) and 36% hydroxyethyl methacrylate (HEMA) (Aldrich, 128635, Lot: STBC7495V), 0.08% of N,N-dimethyl-P-toluidine (Acros Organics, Lot: A0207283001) and 0.05% dimethylamino ethyl methacrylate (Aldrich, 234907, Lot: BCBF8391V) were added. The mixture was then stirred for 15 min (800 rpm, VWR Stirrer, USA). Finally, camphorquinone (Aldrich, 12, 489-3, Lot: 2338141) was added at the proportion of 0.1%. The mixture was stirred for another 15 min (VWR Stirrer, USA), and then the viscous liquid resin was prepared. Freeze dried chlorhexidine chloride compounds produced in Example 2 (precipitated with 0.33 M CaCl2) were weighed and incorporated within the resin at a loading level of 5% by weight. To explore the effect of different morphology on the release kinetics, chlorhexidine compounds with spherical, needle and flake morphology (from Example 1, FIG. 1, panels (b) and (c)) were incorporated into the resin. Incorporation of the chlorhexidine compounds within the resin was carried out by rotating the mixture contained in a 1 ml tube for 15 s in a Rotomix (120V/60 Hz, 2850 rotations/min) (ESPE RotoMix, USA). Chlorhexidine diacetate was also incorporated in the prepared resin in the same way, with loading rates of 5%, 10% and 15% (weight %). The filled resin was then placed into a Teflon mould (10 mm in diameter ×2 mm thick) and cured through a Mylar film with a curing light (Bluedent LED pen, Bulgaria) (430-490 nm, 600 mW/sq·cm) for 30 s. Then the discs were next weighed on a microbalance (Salter Ander-180A weighing scale, UK), and chlorhexidine content in each disc was calculated.
For the release study, all sample resin discs (HEMA-UDMA) containing chlorhexidine chloride compounds or chlorhexidine diacetate powder prepared in Example 5 were kept in cuvettes containing 3 ml deionized water, and kept at room temperature. And at each time point, solutions were collected for UV absorption tests (Lambda 35, Perkin Elmer, USA) and replaced with fresh deionized water.
For the chlorhexidine chloride compound doped discs (Example 5) chlorhexidine content was fixed at 5%, and ultrasound was exerted. Four groups (five discs in each group) were repetitively treated with ultrasound for 0 s, 10 s, 20 s, 30 s, accordingly, by contacting the ultrasound probe (Piezon Master 400, Swiss, 60 Hz, 45VA) on the disc surface at time points of 1 h, 3 h, 5 h, 15 h, 25 h, 40 h, 65 h, 95 h, 140 h, 205 h. After that, no ultrasound was carried out for all the groups, but release was carried on until the 650 hour time point. The UDMA-HEMA discs containing needle and flake chlorhexidine compounds and chlorhexidine diacetate (FIG. 1, panels (b) and (c), and FIG. 3, panel (g)) were also tested (UV absorption tests) at the same time points (same sample numbers) but without ultrasound treatment. For the chlorhexidine diacetate powder doped discs chlorhexidine content of 5%, 10% and 15% were also analysed, and no ultrasound treatment was carried out.

L929 cells = settings: mouse
Protocol: 0.5% chlorhexidine spheres stock solution was used to prepare fresh successive dilutions in sterile deionised water to obtain the final concentrations ranging from 0.0005 to 0.25%. For controls (untreated cultures), sterile deionised water was used. 25 μl of each treatment were added into respective wells to achieve final concentrations ranging from 0.00005-0.025%.
L929 cells, a mouse fibroblast-like cell line (ECACC 85011425) were cultured in Dulbecco's Modified Eagle's Medium (DMEM; Lonza, UK) supplemented with 10% fetal bovine serum (FBS) with 100 IU/mL penicillin, 100 μg/mL streptomycin and 2 mmol/L glutamine (all from Invitrogen, UK) in an humidified incubator with 10% CO2 and 95% air at 37° C.
Cell metabolic activity was evaluated by measuring the mitochondrial activity using a method commonly known as a methyl-tetrazolium (MTT) assay. MTT assay was carried out according to the protocols outlined in ISO 1 0993-5:2009 (Biological evaluation of medical devices—Part 5: Tests for in vitro cytotoxicity).
Trypsinisation was performed by routine methods and cell suspension was counted using a haemocytometer and seeded in 96-well microtiter plates at a concentration of 10,000 cells per well. The cells were then left overnight in the incubator to adhere to the wells. Following overnight incubation, medium was removed and cells were washed twice with PBS. The cells were then treated with different concentrations of chlorhexidine spheres (0.00005-0.025%) for 24 and 48 hours. Following treatment, culture medium containing chlorhexidine spheres was removed and 50 μL of 5 mg/mL tetrazolium salt MTT (Sigma-Aldrich, Gillingham, UK) was added to each well and incubated in 37 C for 4 h. Formazan crystals generated by mitochondrial enzyme activity were dissolved by 100 μl of isopropanol and the intensity of purple coloured reaction product quantified by measuring the absorbance spectra at 570 nm. A cell viability level below 70% of control (no treatment) was regarded as the toxic concentration according to the ISO protocol.

SMILES	decomposition temperature [1] [°C]	chlorhexidine released by weight ([2]; 5% loading, deionized water, room temperature) [%]	chlorhexidine released by weight ([2]; 10% loading) [%]	chlorhexidine released by weight ([2]; 15% loading) [%]	cellular viability (L929 cells)
CC(=O)O.CC(=O)O.NC(=N\CCCCCC/N=C(N)/N=C(\N)Nc1ccc(Cl)cc1)/N=C(\N)Nc1ccc(Cl)cc1 [chlorhexidine diacetate, Chlorhexidine diacetate, reference compound]	120	6.7	11.0	15.1	
[H]/N=C(\N/C(=N/[H])NCCCCCCNC(=N)NC(=N)Nc1ccc(Cl)cc1)Nc1ccc(Cl)cc1 [chlorhexidine, N,N″″1,6-Hexanediylbis[N′-(4-chlorophenyl)(imidodicarbonimidic diamide)]]					below 10%
